Solubility data for one molecule are collected here from patent EP4644401A1, “ALLULOSE SYRUP WITH IMPROVED PROPERTY” (Samyang Corporation, priority 2022, dated 2024).

SMILES strings stand for the structures. Values after ≈ are worked out from the molar mass of the structure shown.

The solubility is the dissolved amount per volume that the medium holds. A high value points to much dissolved substance.

This data set in a line: Solubility analysis of allulose dimer crystals in water. The class given is physicochemical. To be noted: water as solvent, solvent temperature 25°C.

Consider `O=C(CO)[C@H](O)[C@H](O)[C@H](O)CO` [allulose], for which the solubility is 340 mg/mL (≈ 1890 mM).
